For assay [1], the target named is T1, Endothelin-converting enzyme 2 (Homo sapiens, UniProt P0DPD6).
T1 sequence (P0DPD6 whole entry): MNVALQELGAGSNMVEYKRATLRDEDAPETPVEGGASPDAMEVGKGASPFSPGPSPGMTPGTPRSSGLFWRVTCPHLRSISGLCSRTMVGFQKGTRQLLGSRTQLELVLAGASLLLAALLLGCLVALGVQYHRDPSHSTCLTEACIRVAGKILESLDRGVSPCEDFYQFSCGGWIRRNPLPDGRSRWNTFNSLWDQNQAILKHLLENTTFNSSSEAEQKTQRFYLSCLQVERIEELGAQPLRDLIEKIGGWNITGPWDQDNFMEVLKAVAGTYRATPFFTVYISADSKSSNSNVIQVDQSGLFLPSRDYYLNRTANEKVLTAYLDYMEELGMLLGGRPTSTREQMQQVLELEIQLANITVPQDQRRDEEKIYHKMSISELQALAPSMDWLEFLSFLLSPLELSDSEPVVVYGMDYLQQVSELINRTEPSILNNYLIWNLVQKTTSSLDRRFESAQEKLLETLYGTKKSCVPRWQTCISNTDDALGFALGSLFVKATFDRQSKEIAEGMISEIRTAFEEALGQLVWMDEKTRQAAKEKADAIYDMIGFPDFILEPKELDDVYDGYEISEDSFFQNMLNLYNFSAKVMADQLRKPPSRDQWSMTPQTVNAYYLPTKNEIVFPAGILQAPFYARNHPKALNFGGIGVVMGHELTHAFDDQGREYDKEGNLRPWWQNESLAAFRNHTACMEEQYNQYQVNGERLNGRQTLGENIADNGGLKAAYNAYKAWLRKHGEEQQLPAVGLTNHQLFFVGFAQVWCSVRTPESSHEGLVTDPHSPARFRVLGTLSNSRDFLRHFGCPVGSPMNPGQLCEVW
In words: Reduction of recombinant ECE2 activity measured by McaBk2 fluorescent substrate hydrolysis.

The target in assay [2] is T2, Endothelin-converting enzyme 2 (Homo sapiens) (UniProt P0DPD6).
T2 sequence (whole entry): T1 sequence (P0DPD6 whole entry)
In words: Reduction of recombinant ECE2 activity measured by McaBk2 fluorescent substrate hydrolysis at 10 uM. Further details: scale not given: the % may be the effect or the level left.

Assay [3] addresses Neprilysin (Homo sapiens, UniProt P08473). In words: Inhibition of Neprilysin.

Sequence of Neprilysin (P08473 whole entry): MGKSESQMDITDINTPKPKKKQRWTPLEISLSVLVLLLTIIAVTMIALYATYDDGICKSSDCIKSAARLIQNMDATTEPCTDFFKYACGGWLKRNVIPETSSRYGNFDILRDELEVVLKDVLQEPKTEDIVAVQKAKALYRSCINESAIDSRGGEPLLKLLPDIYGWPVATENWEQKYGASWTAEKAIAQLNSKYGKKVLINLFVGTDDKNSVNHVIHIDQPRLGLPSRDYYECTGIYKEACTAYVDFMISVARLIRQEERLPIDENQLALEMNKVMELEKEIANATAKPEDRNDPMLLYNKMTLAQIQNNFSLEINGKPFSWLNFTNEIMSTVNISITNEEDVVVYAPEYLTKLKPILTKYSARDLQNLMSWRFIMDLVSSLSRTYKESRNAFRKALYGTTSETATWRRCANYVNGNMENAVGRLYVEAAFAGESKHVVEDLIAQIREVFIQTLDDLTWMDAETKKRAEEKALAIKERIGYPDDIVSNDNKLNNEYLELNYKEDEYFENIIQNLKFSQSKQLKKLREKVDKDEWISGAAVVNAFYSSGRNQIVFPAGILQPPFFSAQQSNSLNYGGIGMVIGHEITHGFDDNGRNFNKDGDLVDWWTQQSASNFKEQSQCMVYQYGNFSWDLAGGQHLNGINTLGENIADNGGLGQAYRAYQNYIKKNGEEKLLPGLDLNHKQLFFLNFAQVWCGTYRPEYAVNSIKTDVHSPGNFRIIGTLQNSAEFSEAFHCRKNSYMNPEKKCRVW

With `COc1cccc(/C=C/c2ccc3cccc(O)c3n2)c1`, the IC50 in assay [1] is 35.7 µM.

Take `Oc1ccccc1/C=C\c1ccc2ccccc2n1`: the IC50 in assay [1] was 4.63 µM.

Turning to `COc1cccc(/C=C/c2ccc3cccc(O)c3n2)c1O`, the half-maximal inhibitory concentration (IC50) in assay [1] is 32.9 µM.

`O=C(Cc1ccc2nccnc2c1)N1CCCC1`: in assay [2], the Activity was > 70%. Further, the figures for the IC50 in assay [1] and in assay [3] were 5.83 µM and > 50 µM, respectively.

Consider `Oc1ccccc1/C=C/c1ccc2ccccc2n1`, for which, in assay [2], the Activity was > 70%. Besides, the IC50 in assay [1] is 6.42 µM; in assay [3], > 100 µM.

Values taken from ChEMBL document CHEMBL1150762, “Homology modeling and site-directed mutagenesis to identify selective inhibitors of endothelin-converting enzyme-2” (J Med Chem, 2008).
